We go through eight compounds from publication PMC4893804 (Journal of medicinal chemistry, 2015).

Assay [1] has as its target HCMV DNA polymerase (UL54) (Human cytomegalovirus, UniProt P08546). Kind of assay: Enzyme assay with HCMV DNA polymerase. It is filed as biochemical. The note with it: IC50 HCMV DNA Pol, activated calf thymus DNA, [3H]dTTP.
The target in assay [2] is Y115F HIV-1 RT (Human immunodeficiency virus type 1 group M subtype B, UniProt P03366, Y714F). Description: Mutant HIV-1 RT assay.
Assay [3] addresses Human DNA Pol β (Homo sapiens, UniProt P06746). Kind of assay: Enzyme assay with human DNA polymerase β. It is filed as biochemical.
Assay [4] deals with HIV-1 RT (Human immunodeficiency virus type 1 group M subtype B, UniProt P03366). Kind of assay: HIV-1 reverse transcriptase assay with homopolymeric template/primers. The format is biochemical.
Assay [5] addresses T1, Human DNA Pol α (Homo sapiens, UniProt P09884).
T1 sequence (P09884 1-1462): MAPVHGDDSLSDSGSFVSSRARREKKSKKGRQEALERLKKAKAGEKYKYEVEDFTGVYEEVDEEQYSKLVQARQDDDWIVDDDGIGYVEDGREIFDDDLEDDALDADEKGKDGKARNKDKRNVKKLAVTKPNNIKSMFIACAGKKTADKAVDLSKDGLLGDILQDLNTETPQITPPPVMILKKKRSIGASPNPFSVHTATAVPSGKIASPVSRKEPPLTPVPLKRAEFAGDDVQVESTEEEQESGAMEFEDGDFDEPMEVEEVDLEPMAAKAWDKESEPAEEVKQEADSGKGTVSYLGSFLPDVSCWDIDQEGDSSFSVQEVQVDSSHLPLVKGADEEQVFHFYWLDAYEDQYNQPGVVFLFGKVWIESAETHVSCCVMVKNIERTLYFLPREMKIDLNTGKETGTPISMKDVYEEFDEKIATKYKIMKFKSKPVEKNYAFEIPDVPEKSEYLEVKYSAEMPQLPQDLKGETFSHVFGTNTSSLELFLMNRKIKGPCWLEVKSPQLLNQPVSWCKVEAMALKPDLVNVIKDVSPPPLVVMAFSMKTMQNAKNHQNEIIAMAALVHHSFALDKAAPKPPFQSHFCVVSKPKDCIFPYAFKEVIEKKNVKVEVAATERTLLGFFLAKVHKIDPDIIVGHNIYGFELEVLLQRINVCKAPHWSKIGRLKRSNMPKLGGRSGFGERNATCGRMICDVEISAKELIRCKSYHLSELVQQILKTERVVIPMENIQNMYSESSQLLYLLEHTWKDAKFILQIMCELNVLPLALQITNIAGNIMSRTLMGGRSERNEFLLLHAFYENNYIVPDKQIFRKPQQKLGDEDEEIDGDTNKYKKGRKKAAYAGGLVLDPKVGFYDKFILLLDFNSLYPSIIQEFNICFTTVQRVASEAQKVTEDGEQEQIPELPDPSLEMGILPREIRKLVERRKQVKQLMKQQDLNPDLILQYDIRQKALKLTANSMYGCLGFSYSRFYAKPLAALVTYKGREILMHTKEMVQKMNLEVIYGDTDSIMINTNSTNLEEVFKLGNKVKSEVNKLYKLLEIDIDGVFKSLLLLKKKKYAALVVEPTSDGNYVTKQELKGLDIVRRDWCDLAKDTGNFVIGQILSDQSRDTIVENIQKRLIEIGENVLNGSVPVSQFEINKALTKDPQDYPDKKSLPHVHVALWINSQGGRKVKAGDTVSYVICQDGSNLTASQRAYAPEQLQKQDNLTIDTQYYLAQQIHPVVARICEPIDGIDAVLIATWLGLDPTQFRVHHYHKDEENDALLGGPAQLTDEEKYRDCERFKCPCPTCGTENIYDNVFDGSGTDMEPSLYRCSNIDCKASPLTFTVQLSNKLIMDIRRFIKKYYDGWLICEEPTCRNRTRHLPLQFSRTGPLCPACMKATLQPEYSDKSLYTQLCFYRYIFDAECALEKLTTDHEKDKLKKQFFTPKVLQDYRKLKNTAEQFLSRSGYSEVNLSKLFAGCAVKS
Kind of assay: Enzyme assay with human DNA polymerase α. It is filed as biochemical.

Assay [6] has as its target VZV DNA polymerase (Varicella-zoster virus, UniProt P09252). Kind of assay: Enzyme assay with VZV DNA polymerase. It is filed as biochemical.
The target of assay [7] is M184I HIV-1 RT (Human immunodeficiency virus type 1 group M subtype B, UniProt P03366, M783I). Description: Mutant HIV-1 RT assay.
Assay [8] addresses HSV-1 DNA polymerase (Human herpesvirus 1, UniProt P04293). Kind of assay: Enzyme assay with HSV-1 DNA polymerase. The format is biochemical.
Assay [9] deals with T2, RB69/ABC5 hybrid DNA polymerase (Escherichia phage RB69, UniProt Q38087, D222A/D327A/F479V/I557M/L561V/L562T/N480A/N558A/R559L/V478W). Description: biochemical. Set-up: species or system bacteriophage RB69 / HCMV.
Assay [10] relates to herpetic DNA polymerases (HCMV, HSV-1, VZV). Kind of assay: Herpetic DNA polymerase assays, pooled statements in text. It is filed as biochemical.
For assay [11], the target named is bacteriophage RB69 DNA polymerase gp43 (WT) (Escherichia phage RB69, UniProt Q38087, D222A/D327A). Kind of assay: biochemical.
For assay [12], the target named is T2, RB69/ABC5 hybrid DNA polymerase. The note with it: cited from earlier work.
For assay [13], the system named is human DNA polymerases α and β. Description: Human DNA polymerase α and β assays, pooled statements in text. The format is biochemical.
The mark [14] stands for this setting: IC50 HIV-1 RT Poly rA.dT ([3H]dTTP), Table 7, Poly rA.dT, [3H]dTTP.
Setting [15] is: IC50 HIV-1 RT Poly rC.dG ([3H]dGTP), Poly rC.dG, [3H]dGTP.
The mark [16] stands for this setting: IC50 HIV-1 RT Poly rI.dC ([3H]dCTP), Poly rI.dC, [3H]dCTP.
Where [17] appears, read: IC50 HIV-1 RT Poly rU.dA ([3H]dATP), Poly rU.dA, [3H]dATP.
[18] abbreviates: IC50 HIV-1 RT, poly rA.dT template/primer, [3H]dTTP.
Setting [19] is: IC50 Wild-type HIV-1 RT, Table 8, wild-type RT.

Sequence of VZV DNA polymerase (P09252 whole entry): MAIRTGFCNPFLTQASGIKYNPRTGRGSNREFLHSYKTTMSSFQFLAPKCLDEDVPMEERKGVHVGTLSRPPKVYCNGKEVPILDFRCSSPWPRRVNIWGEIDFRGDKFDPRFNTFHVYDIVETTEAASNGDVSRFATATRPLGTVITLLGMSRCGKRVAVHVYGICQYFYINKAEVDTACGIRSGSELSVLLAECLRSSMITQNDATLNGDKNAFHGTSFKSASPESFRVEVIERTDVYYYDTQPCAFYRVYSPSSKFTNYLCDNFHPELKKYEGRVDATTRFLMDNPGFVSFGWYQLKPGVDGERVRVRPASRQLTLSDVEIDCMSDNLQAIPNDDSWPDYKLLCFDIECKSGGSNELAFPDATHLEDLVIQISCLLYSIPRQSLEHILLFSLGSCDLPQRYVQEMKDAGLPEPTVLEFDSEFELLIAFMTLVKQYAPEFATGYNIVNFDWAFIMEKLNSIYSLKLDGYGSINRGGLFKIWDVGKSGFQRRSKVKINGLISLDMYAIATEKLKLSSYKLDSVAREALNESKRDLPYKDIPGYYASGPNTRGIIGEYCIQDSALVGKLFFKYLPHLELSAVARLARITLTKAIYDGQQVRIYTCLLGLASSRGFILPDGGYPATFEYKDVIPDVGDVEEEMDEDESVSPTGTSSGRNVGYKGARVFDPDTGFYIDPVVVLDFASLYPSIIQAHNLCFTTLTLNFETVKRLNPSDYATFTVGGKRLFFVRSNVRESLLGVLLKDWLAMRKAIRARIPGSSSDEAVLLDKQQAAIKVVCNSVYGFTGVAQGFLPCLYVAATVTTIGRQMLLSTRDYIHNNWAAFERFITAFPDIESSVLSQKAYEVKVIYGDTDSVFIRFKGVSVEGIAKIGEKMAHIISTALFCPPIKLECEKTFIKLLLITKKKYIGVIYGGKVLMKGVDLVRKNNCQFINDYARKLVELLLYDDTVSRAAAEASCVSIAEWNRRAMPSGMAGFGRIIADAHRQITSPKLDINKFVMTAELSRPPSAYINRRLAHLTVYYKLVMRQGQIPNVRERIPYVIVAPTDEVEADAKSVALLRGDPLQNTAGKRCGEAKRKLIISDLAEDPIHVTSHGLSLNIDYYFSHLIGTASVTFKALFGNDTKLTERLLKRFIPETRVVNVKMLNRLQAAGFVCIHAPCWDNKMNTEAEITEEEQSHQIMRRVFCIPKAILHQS
Sequence of HSV-1 DNA polymerase (P04293 whole entry): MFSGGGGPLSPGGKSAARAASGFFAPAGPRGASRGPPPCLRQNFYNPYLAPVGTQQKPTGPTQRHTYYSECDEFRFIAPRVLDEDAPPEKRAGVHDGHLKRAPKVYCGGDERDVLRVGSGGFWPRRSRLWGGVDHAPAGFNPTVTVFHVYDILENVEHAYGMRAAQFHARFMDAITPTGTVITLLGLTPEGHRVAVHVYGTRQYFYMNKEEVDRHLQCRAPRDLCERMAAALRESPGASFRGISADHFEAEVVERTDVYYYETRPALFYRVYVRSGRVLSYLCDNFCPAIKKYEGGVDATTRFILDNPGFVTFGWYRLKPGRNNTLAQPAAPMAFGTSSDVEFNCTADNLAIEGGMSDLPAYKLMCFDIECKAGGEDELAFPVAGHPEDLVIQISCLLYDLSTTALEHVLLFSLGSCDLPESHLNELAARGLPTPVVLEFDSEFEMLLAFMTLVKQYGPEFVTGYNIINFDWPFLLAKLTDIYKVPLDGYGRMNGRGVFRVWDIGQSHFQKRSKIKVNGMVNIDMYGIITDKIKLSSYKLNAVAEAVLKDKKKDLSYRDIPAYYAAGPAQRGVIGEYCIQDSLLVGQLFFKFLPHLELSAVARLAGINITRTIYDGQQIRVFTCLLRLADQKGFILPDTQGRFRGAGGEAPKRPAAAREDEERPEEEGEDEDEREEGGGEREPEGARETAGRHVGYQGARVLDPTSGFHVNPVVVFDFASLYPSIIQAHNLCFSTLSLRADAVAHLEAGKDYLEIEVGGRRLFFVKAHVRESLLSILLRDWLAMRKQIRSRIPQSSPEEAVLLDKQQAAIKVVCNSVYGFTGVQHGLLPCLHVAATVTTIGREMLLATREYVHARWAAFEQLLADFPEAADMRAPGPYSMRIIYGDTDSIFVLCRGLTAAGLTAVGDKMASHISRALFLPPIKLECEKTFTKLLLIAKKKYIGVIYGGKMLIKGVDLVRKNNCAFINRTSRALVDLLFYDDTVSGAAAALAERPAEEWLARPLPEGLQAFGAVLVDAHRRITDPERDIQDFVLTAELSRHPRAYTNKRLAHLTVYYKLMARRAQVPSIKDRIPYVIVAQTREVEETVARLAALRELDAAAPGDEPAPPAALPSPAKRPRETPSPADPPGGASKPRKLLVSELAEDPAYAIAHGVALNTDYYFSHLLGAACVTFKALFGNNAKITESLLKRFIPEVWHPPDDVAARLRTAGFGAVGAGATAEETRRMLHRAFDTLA
T2 sequence (Q38087 whole entry D222A/D327A/V478W/F479V/N480A/I557M/N558A/R559L/L561V/L562T): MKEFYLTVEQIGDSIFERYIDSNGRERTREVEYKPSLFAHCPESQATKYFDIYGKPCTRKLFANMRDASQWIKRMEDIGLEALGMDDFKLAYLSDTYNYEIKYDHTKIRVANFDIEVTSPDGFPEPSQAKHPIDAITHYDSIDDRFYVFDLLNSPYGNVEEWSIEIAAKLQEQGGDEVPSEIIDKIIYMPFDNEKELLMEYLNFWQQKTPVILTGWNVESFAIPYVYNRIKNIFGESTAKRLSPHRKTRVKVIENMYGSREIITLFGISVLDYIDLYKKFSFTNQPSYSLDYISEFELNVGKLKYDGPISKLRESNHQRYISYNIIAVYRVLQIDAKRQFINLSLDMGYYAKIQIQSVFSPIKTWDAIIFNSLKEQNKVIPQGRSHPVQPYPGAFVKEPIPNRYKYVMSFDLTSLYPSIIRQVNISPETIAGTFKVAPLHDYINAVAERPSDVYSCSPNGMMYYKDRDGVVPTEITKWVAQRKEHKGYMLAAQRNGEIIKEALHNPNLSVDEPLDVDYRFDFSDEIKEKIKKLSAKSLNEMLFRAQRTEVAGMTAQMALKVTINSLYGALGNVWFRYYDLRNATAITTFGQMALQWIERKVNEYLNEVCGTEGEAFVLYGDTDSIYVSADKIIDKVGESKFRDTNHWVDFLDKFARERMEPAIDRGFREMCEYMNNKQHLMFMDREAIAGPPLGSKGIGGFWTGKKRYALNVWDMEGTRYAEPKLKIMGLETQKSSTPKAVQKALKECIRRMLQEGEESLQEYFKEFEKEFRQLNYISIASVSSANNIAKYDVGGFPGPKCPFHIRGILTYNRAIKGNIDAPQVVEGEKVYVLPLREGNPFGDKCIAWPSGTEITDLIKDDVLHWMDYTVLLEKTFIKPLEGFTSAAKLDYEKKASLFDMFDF
Sequence of HCMV DNA polymerase (UL54) (P08546 whole entry): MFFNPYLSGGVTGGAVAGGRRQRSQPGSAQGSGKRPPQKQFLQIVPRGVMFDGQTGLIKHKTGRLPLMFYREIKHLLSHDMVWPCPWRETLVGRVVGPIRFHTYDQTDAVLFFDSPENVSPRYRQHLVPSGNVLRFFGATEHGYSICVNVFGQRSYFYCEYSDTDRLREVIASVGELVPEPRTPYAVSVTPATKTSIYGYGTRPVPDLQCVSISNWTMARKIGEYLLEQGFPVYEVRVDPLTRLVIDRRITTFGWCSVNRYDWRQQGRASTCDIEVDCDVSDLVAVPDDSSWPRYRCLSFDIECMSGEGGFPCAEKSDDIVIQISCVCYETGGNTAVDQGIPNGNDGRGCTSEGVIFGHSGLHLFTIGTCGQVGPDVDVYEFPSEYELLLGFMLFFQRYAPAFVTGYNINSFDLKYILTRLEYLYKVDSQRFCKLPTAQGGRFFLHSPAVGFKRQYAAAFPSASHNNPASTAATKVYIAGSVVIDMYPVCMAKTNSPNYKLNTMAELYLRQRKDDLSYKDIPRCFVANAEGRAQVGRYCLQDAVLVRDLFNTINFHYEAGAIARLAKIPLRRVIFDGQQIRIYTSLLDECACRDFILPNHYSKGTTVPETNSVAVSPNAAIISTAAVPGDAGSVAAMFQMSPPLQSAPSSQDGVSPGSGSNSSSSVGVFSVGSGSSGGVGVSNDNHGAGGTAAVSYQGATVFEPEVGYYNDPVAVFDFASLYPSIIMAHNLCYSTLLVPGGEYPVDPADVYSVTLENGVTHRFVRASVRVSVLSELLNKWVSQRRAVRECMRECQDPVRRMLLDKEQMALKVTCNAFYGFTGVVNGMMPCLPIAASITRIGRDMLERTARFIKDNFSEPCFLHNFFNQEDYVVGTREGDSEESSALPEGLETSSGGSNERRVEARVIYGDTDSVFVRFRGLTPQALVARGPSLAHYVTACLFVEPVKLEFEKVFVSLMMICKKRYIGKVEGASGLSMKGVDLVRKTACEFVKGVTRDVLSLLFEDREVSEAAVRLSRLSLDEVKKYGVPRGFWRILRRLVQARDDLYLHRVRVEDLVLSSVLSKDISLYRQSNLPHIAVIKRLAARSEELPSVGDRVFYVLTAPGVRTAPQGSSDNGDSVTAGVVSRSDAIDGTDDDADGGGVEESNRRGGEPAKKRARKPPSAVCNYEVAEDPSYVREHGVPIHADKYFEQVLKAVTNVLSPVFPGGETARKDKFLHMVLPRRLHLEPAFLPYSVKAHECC
Sequence of bacteriophage RB69 DNA polymerase gp43 (WT) (Q38087 whole entry D222A/D327A): as the sequence (Q38087 whole entry D222A/D327A/V478W/F479V/N480A/I557M/N558A/R559L/L561V/L562T) above, with W478V, V479F, A480N, M557I, A558N, L559R, V561L, T562L counted along it

Regarding `Nc1nc2c(ncn2C/C=C\COC(C(=O)O)P(=O)(O)O)c(=O)[nH]1` (stereo not drawn) [Compound 6l, 2-Cis-(4-(2-amino-6-oxo-1H-purin-9(6H)-yl)but-2-enyloxy)-2-phosphonoacetic acid], the half-maximal inhibitory concentration (IC50) in [1] was 3.6 ± 0.6 µM; in [2] it was not below 1250 µM; in assay [3], more than 500 µM; in assay [4] (setting [14]), not below 500 µM; in assay [4] (setting [15]), more than 500 µM; in assay [4] (setting [16]) it was more than 500 µM. The concentration for half-maximal inhibition (IC50) in assay [4] (setting [17]) is 369 ± 48 µM; in assay [4] (setting [18]), not below 500 µM; in assay [4] (setting [19]), not below 1250 µM; in assay [5], 365 ± 91 µM; in assay [6], 2.9 µM; in assay [7], more than 1250 µM. This compound also showed an IC50 in assay [8] of 2.1 ± 2.3 µM.

For the compound `Cc1cn(C/C=C\COC(C(=O)O)P(=O)(O)O)c(=O)[nH]c1=O` (stereo not drawn) [Compound 6g, cis-2-(4-(2,4-Dioxo-5-methyl-pyrimidin-1-yl)but-2-enyloxy)-2-phosphonoacetic acid], the IC50 in assay [9] is more than 100 µM; in [2] it was 655 ± 409 µM; in assay [3] it was more than 500 µM; in [4] (setting [14]) it was 235 ± 16 µM; in [4] (setting [15]) it was more than 500 µM; in assay [4] (setting [16]), more than 500 µM. Moreover, the 50% inhibitory concentration (IC50) is not below 500 µM in assay [4] (setting [17]); 235 ± 16 µM in assay [4] (setting [18]); 320 ± 89 µM in assay [4] (setting [19]); 14 ± 7 µM in assay [5]; more than 100 µM in assay [11]; 2.2 ± 0.1 µM in assay [6]. Also, the concentration for half-maximal inhibition (IC50) in [7] was more than 2500 µM; in assay [8], 3.7 ± 1.7 µM. In addition, the “loss of anti-HIV-1 RT activity compared to prototype thymine-α-CNP” value in assay [4] (ratio of IC50 vs thymine-α-CNP) is given as ~ 600 fold. The “selectivity for herpetic DNA polymerases compared to human DNA polymerase α” value in assay [10] (herpetic vs human DNA polymerase α) is listed as 4- to 7 fold. Also, the “higher potency against herpetic DNA polymerases compared to butyl analogue 6h” value in assay [10] (ratio vs 6h) was 8- to 20 fold. For the same compound, the “superior activity against herpetic DNA polymerases than against HIV-1 RT” value in [10] (selectivity herpetic over HIV-1 RT) is listed as ~ 100 fold.

On to `Nc1nc2c(ncn2COCCOP(=O)(O)OP(=O)(O)OP(=O)(O)O)c(=O)[nH]1` [acyclovir triphosphate], for which, in assay [12], the “sensitivity of chimera RB69/ABC5 to active-site inhibitors” value was “sensitive”.

On to `Nc1ccn(C/C=C\COC(C(=O)O)P(=O)(O)O)c(=O)n1` (stereo not drawn) [Compound 6m, 2-Cis-(4-(4-amino-2-oxopyrimidin-1(2H)-yl)but-2-enyloxy)-2-phosphonoacetic acid], for which the IC50 is 16 ± 8 µM in assay [1]; 408 ± 16 µM in [2]; more than 500 µM in [3]; 270 ± 33 µM in [4] (setting [14]); more than 500 µM in [4] (setting [15]); 273 ± 54 µM in assay [4] (setting [16]). The IC50 in assay [4] (setting [17]) was more than 500 µM; in [4] (setting [18]), 270 ± 33 µM; in assay [4] (setting [19]) it was 318 ± 73 µM; in [5] it was 414 ± 22 µM; in [6] it was 2.9 ± 0.9 µM; in [7] it was more than 1250 µM. Moreover, the midpoint of inhibition in [8], the IC50, lay at 12 ± 6 µM.

Take `O=C(O)P(=O)(O)O` [PFA, phosphonoformic acid, reference compound]: the IC50 is 9.8 ± 5.8 µM in assay [1]; more than 100 µM in assay [3]; 0.34 ± 0.01 µM in assay [4] (IC50 HIV-1 RT); 0.34 ± 0.01 µM in assay [4] (IC50 HIV-1 RT Poly rA.dT ([3H]dTTP)); 17 ± 2 µM in assay [4] (IC50 HIV-1 RT Poly rC.dG ([3H]dGTP)); 6.8 ± 2 µM in assay [4] (IC50 HIV-1 RT Poly rI.dC ([3H]dCTP)). In addition, the concentration for half-maximal inhibition (IC50) is 0.75 ± 0.13 µM in assay [4] (IC50 HIV-1 RT Poly rU.dA ([3H]dATP)), 7.7 ± 6.5 µM in [5] and 0.44 ± 0.25 µM in assay [8]. For the same compound, the “sensitivity of chimera RB69/ABC5 to active-site inhibitors” value in [12] is reported as “sensitive”.

Consider `O=C(O)C(OC/C=C\CO)P(=O)(O)O` (stereo not drawn) [Compound 6n, 2-Cis-((4-hydroxybut-2-en-1-yl)oxy)-2-phosphonoacetic acid], for which, in [13], the “inhibitory activity against human DNA polymerases (in words)” value is “insensitive”. The “inhibitory activity against HIV-1 RT (in words)” value in assay [4] is “insensitive”. For the same compound, in assay [10], the “inhibitory activity against herpetic DNA polymerases (in words)” value is reported as “insensitive”.

Turning to `Nc1ncnc2c1ncn2C/C=C\COC(C(=O)O)P(=O)(O)O` (stereo not drawn) [Compound 6k, 2-Cis-(4-(6-amino-9H-purin-9-yl)but-2-enyloxy)-2-phosphonoacetic acid], the IC50 is 5.5 ± 2.1 µM in assay [1]; 630 ± 37 µM in [2]; 454 ± 28 µM in assay [3]; 404 ± 30 µM in [4] (setting [14]); more than 500 µM in assay [4] (setting [15]); more than 500 µM in assay [4] (setting [16]). The 50% inhibitory concentration (IC50) is 40 ± 8 µM in [4] (setting [17]); 404 ± 30 µM in [4] (setting [18]); 531 ± 154 µM in assay [4] (setting [19]); not below 500 µM in assay [5]; 3.3 ± 0.4 µM in [6]; not below 2500 µM in assay [7]. In [8], this compound returned a 50% inhibitory concentration (IC50) of 2.7 ± 2 µM.

`Cc1cn(C[C@@H]2CCC[C@H]2COC(C(=O)O)P(=O)(O)O)c(=O)[nH]c1=O` (relative stereo) [Compound 6o]: the “inhibitory activity against human DNA polymerases (in words)” value in [13] is recorded as “poor, if any, inhibitory activity”. For the same compound, the “inhibitory activity against herpetic DNA polymerases (in words)” value in [10] is given as “poor, if any, inhibitory activity”.
